Measurements as given in patent publication US10118922B2 (Janssen Pharmaceutica NV, priority 2013, dated 2018).

What was measured:
[1] = biological target: T1, long form of human GPR120 (Homo sapiens, UniProt Q5NUL3); test: Human GPR120 DiscoveRx PathHunter beta-arrestin assay, Procedure β-arrestin A; type: cell-based; conditions: PathHunter CHO-K1 GPR120 β-Arrestin cells, 3000 cells per well; read-out: hGPR120 β-arrestin A EC50
T1 construct: host or cells: PathHunter CHO-K1 GPR120 β-Arrestin Cell Line
T1 sequence (Q5NUL3 1-377 isoform Q5NUL3-1): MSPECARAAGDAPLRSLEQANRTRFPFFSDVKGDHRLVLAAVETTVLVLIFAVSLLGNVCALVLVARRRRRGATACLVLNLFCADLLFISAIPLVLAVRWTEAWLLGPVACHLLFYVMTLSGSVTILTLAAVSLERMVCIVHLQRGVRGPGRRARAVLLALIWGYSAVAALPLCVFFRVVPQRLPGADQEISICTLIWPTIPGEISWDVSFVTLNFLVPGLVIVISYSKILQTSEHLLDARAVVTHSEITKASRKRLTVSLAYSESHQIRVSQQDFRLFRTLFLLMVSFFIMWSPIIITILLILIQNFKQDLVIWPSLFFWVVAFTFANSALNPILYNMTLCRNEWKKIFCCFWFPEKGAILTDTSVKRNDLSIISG
Text: The binding of an agonist (medium/long chain fatty acids or small molecule agonists) to the G-protein-coupled receptor GPR120 activates phospholipase C, leading to release of intracellular Ca^+2 through the generation of inositol 1,4,5-trisphosphate (InsP3 or IP3). GPR120 activation can also trigger intracellular signaling via recruitment of Beta-Arrestin. In the present method, agonist-induced activation of the human GPR120 receptor is monitored through the use of PathHunter CHO-K1 GPR120 Beta-Arrestin Cell Line engineered by DiscoveRx, as detailed below. The cell lines are designed to co-express both the ProLink/Enzyme Donor (PK)-tagged GPCR and the Enzyme […] (EA)-tagged Beta-Arrestin fusion proteins. Upon GPR120 receptor stimulation/activation, the EA-tagged Beta-Arrestin portion is translocated to the tagged receptor, where the two enzyme fragments are brought within close proximity. Under these conditions, these fragments can interact and form an active Beta-gal enzyme complex through Enzyme Fragment Complementation (EFC). […] This in vitro assay therefore serves to assess compound agonist activity of the GPR120.
In Procedure β-arrestin A, the cell used were PathHunter CHO-K1 GPR120 β-Arrestin Cell Line, expressing the long form of human GPR120 (Genbank accession number NM_181745), with 3000 cells per well.
The selected CHO-K1 GPR120 β-Arrestin cells were cultured in Ham's F12 media supplemented with 10% fetal bovine serum (FBS), 1% Glutamine, 1×p/s, 800 μg/mL G418 and 300 μg/mL Hygromycin B (for selection). Cell stocks were maintained and grown in a sub-confluent state using standard cell culture procedures. The day before the experiment, the cells were harvested with non-enzymatic cell dissociation buffer and re-suspended in complete growth media at the desired concentration. […] The seeded plates were incubated overnight at 37° C.
On the day of the experiment, the Assay Buffer containing (a) HBSS with Ca^++ and Mg^++, (b) 20 mM HEPES, and (c) 0.1% BSA stabilizer (pH 7.4) was prepared. The growth medium was gently removed from the cell plates and 20 μL of Assay Buffer added to each well. The plate was then incubated at 37° C. for 60 min. […] Five μL of compound dilution was then added to each well and the plate incubated at 37° C. for 90 min. The detection reagents were prepared according to the manufacture's instruction. Twelve μL of the detection reagents were added to each well and the plate incubated at room temperature for 60 min.
The % activity relative to the positive control was calculated using the following equation:
The Fitting Equation was: Y=Bottom+(Top-Bottom)/(1+10^((Log EC50−X)*HillSlope)), where X is the log of the concentration and Y is the response.

[2] = biological target: T2, Human GPR120 short form (Homo sapiens, UniProt Q5NUL3); test: Human GPR120 calcium flux assay, Procedure Calcium A; type: cell-based; conditions: HEK-293 cells, FLIPR, 2500 cells/well; read-out: GPR120 Ca2+ Assay A EC50
T2 construct: expressed in transfected cells
T2 sequence (Q5NUL3 1-361): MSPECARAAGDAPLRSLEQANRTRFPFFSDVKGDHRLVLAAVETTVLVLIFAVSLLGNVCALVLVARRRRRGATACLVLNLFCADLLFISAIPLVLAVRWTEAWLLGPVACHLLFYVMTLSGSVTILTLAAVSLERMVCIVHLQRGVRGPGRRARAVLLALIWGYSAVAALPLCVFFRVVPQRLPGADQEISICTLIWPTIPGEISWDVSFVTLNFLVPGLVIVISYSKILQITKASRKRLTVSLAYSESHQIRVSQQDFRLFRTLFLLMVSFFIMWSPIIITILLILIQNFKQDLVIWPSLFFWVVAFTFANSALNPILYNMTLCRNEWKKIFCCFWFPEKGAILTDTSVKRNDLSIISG
Description: These cells are first loaded with the Ca^+2 sensitive dye, Fluo-4 NR. Upon stimulation, intracellular released Ca^+2 can bind to the dye and alter its fluorescence intensity. This increase in fluorescence signal, and thus the flux in intracellular [Ca^2+], is detected and quantitated by fluorescence imaging using a FLIPR reader. The effect of the agonist is measured as a function of concentration and used to calculate an EC50 based upon a response curve.
In this procedure 2500 cells/well were employed.
A Human GPR120 clone (Genbank accession number NM_001195755.1) was placed into the pcDNA3.1 mammalian expression vector carrying the neomycin resistance gene. A stable mammalian cell was generated by placing the above clone into a HEK293 background. […] Cells were split 2 times a week to keep the cells in the log-phase growth.
In preparation for the assay, HEK cells stably transfected with Human GPR120 (2.5K cells per well in 25 uL growth medium) were seeded into 384-well plates and then incubated overnight (37° C., 5% CO2). The next day, the media was changed to 20 μL assay buffer and the cell starved for 1 h at 37° C. The dye loading solution (2× dye) was prepared using 10 mL assay buffer, 100 μL of 250 mM probenecid, 1 bottle of Component A, and 20 μl of dye in DMSO. Twenty μL of the 2× dye loading buffer was then added to each well. The plates were incubated at 37° C. for 30 min, then at room temperature for an additional 15 minutes, before performing the assay on FLIPR.
The assay was performed on a FLIPR plate reader using the following parameters. Baseline was read for 10 seconds at 1 sec intervals. The program was set to transfer 10 μL of ligand from compound plate to cell plate after baseline reading. Aspiration was executed at: 10 μL/sec speed, 4.6 μL height; Dispensing was executed at: 30 μL/sec speed, 45 μL height. After compound addition, each well was read for 300 sec, with measurements collected at 1 sec intervals.
The kinetic data from the FLIPR was based upon a 5 minute window for data collection. The fluorescence of each sample well was used for individual calculations of a normalized RFU value, which was defined as maximum response minus the minimum response. […] The Fitting Equation was: Y=Bottom+(Top-Bottom)/(1+10^((Log EC50−X)*HillSlope)), where X is the log of the concentration and Y is the response.

[3] = tested on: C57B16 mice on a high fat diet; test: GPR120 DIO mice OGTT screening; type: in vivo, mouse; conditions: dosed 30 min prior to glucose PO
Description: 18-22 week old, C57B16 mice on a high fat diet (60% HFD) for 12-16 weeks (ave. body weight ˜37-41 g) were fasted for 6 hr, with removal of food occurring at 7 am on the morning of the study. The animals were sorted into treatment groups the day before the study by body weight. Animals outside the bounds of ˜30-50 g were left out of the study. The animals had been handled and shammed a total of 5-8 days (1-3 days immediately prior to the study). Glucose (in 1 mL syringes) was drawn up the morning of the study. Test compounds were kept spinning and were only drawn into 1 ml syringes prior to study commencement. Animals were bled via tail snip to determine basal glucose levels prior to dosing of treatments. An Ascensia BREEZE Blood Glucose Monitoring System by Bayer was used for determining glucose levels.
Animals were moved into the testing room at ˜9-11 am, to yield them time to acclimate. The bleeds and dosing started at approximately 1 pm in 30-second intervals per animal. All groups were dosed 30 minutes prior to glucose administration at a dose volume of 10 ml/kg (the dose volume was calculated separately for each individual animal). Test compounds were administered at one or more of the following dosages: 0.1 mg/kg, 0.3 mg/kg, 1 mg/kg, 3 mg/kg and 10 mg/kg.
Thirty minutes after the first dose (with test compound) animals were bled again for a second baseline, or T=0, and immediately dosed with glucose (20% solution; TEKNOVA, 250 ml sterile bottle w/ catalogue number G0525) via a PO injection. The exact dose volume for glucose was also calculated separately for each individual animal.
Blood glucose was measured at 15, 30, 45, 60, and 90 minutes post-glucose administration via the snipped tail. If an animal reached a value of “HI”, the upper limit of the glucometer (600 mg/dl) was substituted as the blood glucose value and the study was analyzed as normal with no exclusions. If 50% or more of any treatment group reaches a “HI” value at least once, the study was considered invalid and repeated. Glucose values were typed into an EXCEL spreadsheet where they were used to calculate glucose AUC and delta AUC post-compound and post-glucose. The glucose excursion curves and the different versions of the AUC's were graphed in GraphPad Prism 5.
Note: All statistics completed in this study were completed using the statistical software package GraphPad Prism 5. Standard procedures for analyzing data sets from screening GPR120 compounds in DIO mouse OGTT's were as listed here below. In addition to the statistics that were run using GraphPad Prism 5, Microsoft Excel was used to calculate the percent changes in AUC from vehicle groups as detailed below.
Change from −30 to 0 BSLN Glucose, Raw Glucose AUC −30 to 90 min, Delta Glucose AUC −30 to 90 min, Raw Glucose AUC 0 to 90 min, Delta Glucose AUC 0 to 90 min were analyzed using Column Statistics Analysis, with mean values used to calculate % change from the vehicle mean group, as well as mean, SEM and/or % change from vehicle, where appropriate; and using One-Way ANOVA w/ a Tukey Post-Test (Comparing All Pairs of Columns) with each treatment group examined to see if it was statistically significant compared to vehicle (*=P<0.05, **=P<0.01, ***=P<0.001).

`CCc1ccc(-c2nsc(C(F)(F)F)c2COc2c(F)cc([C@@H]3C[C@H]3CO)cc2F)cc1` [Cpd 219, [(1R,2R)-2-(4-{[3-(4-Ethylphenyl)-5-(trifluoromethyl)isothiazol-4-yl]methoxy}-3,5-difluorophenyl)cyclopropyl]methanol] gave an EC50 [1] of 210 nM and an EC50 [2] of 690 nM.

Molecule `CCc1ccc(-c2cc(F)sc2COc2c(F)cc(CCC(=O)O)cc2F)cc1` [Cpd 7] has an EC50 [1] of 209 nM and an EC50 [2] of 101 nM.

With `O=C(O)CCc1cc(F)c(OCc2c(-c3ccc(Cl)cc3F)nsc2C(F)(F)F)c(F)c1` [Cpd 74, 3-(4-((3-(4-chloro-2-fluorophenyl)-5-(trifluoromethyl)isothiazol-4-yl)methoxy)-3,5-difluorophenyl)propanoic acid] the “DIO Lowering Glucose AUC (−30 to 90) @ 10 mg/kg” value (shortened to “DIO Lowering Glucose AUC”) [3] was −0.71.

With `O=C(O)CCc1cc(F)c(OCc2c(-c3ccc(Cl)c(F)c3)nsc2C(F)(F)F)c(F)c1` [Cpd 67, 3-(4-((3-(4-chloro-3-fluorophenyl)-5-(trifluoromethyl)isothiazol-4-yl)methoxy)-3,5-difluorophenyl)propanoic acid] the “DIO Lowering Glucose AUC” value [3] was −0.78.

With `Cc1ccc(-c2nsc(C(F)(F)F)c2COc2c(F)cc(CCC(=O)O)cc2F)c(F)c1` [Cpd 65, 3-(3,5-difluoro-4-[[3-(2-fluoro-4-methylphenyl)-5-(trifluoromethyl)-1,2-thiazol-4-yl]methoxy]phenyl)propanoic acid] the “DIO Lowering Glucose AUC” value [3] was −0.61.

In the case of `CCc1ccc(-c2nsc(C(F)(F)F)c2COc2ccc(CCC(=O)O)c(F)c2F)cc1` [Cpd 73, 3-(4-((3-(4-ethylphenyl)-5-(trifluoromethyl)isothiazol-4-yl)methoxy)-2,3-difluorophenyl)propanoic acid], the “DIO Lowering Glucose AUC” value [3] is reported as −0.51.

Molecule `O=C(O)CCc1cc(F)c(OCc2c(-c3ccc(C4CC4)cc3)nsc2C(F)(F)F)c(F)c1` [Cpd 160, 3-(4-{[3-(4-Cyclopropylphenyl)-5-(trifluoromethyl)isothiazol-4-yl]methoxy}-3,5-difluorophenyl)propanoic acid] has an EC50 [1] of 116 nM and an EC50 [2] of 200 nM.

For `Cc1ccc(-c2nsc(C(F)(F)F)c2COc2c(F)cc(CC(C)C(=O)O)cc2F)c(F)c1` (centres unmarked) [Cpd 76, 3-(3,5-difluoro-4-[[3-(2-fluoro-4-methylphenyl)-5-(trifluoromethyl)-1,2-thiazol-4-yl]methoxy]phenyl)-2-methylpropanoic acid], the “DIO Lowering Glucose AUC” value [3] was −0.8.
